# Measured values from patent publication US20060052344A1, “Heterocyclic silicon compounds and their use in the treatment of diseases or conditions associated with gnrh (gonadotropin-releasing hormone)” (priority 2002, published 2006).
# Where “and” joins values, the source holds several entries; their conditions need not be identical. Identical values can stand only once.
smiles,measurement,value
COc1cc(OC)c(NC(=O)c2ccc(Cc3cc4c(cc3C)[Si](C)(C)CC[Si]4(C)C)o2)c(OC)c1,melting point,139 °C and 139 to 140 °C
